This is an account of results in US20100183592A1, “HUMAN EPO RECEPTOR AGONISTS, COMPOSITIONS, METHODS AND USES FOR PREVENTING OR TREATING GLUCOSE INTOLERANCE RELATED CONDITIONS” (priority 2006, published 2010).

Where no end group is shown, it is not given here.

One data set concerns normal mice. The data set can be described thus: effects on erythropoiesis (hematocrit) in normal mice. The class given is in vivo. The note with it: dosed equally / equal activity units. From the text:
(§1) In vivo studies were done in normal mice to compare the half-life of EMP-Hinge core mimetibody to that of rHuEPO and to compare their effects on erythropoiesis.

Data set [1] in a line: serum concentrations by ELISA, half-life in normal mice. The class given is in vivo. As for the experimental part:
as §1
The serum concentrations of both rHuEPO and EMP-Hinge core mimetibody were measured by ELISA.
(In general: ELISA stands for enzyme-linked immunosorbent assay.)

Data set [2] deals with cells that express the EPO receptor. The data set can be described thus: complement lysis of cells that express the EPO receptor. The class given is cell-based. The note with it: preliminary studies. From the text:
It has been shown that mutation of two […] (L) residues, L234 & L235, in the IgG1 lower hinge region to alanine (A) will abrogate the ability of the immunoglobulin to mediate complement dependent cytotoxicity (CDC) and antibody dependant cellular cytotoxicity (ADCC) (Hezereh et al., 2001, J. Virol., vol. 75 (24), 12161-68). […] This may be due to the low number of receptors that are found on erythroid progenitor cells. In addition the in vivo expansion of erythroid progenitors as evidenced by significant increases in hematocrit supports the possible functional irrelevance of immune effector functions. However, while no effector function associated affects have been observed, there remains an interest in introducing these mutations as a precautionary step.

The subject of data set [3] is EPO dependent UT-7/EPO cell line. The data set can be described thus: in vitro bioactivity assay: viability of rHuEPO-starved UT-7/EPO cells (MTS). Type of data set: cell-based, human. The settings on record: for activity compared with rHuEPO: in vitro cell proliferation assay. The procedure: The activity of EMP-Hinge core mimetibody was first tested in an in vitro bioactivity assay. For this assay, the EPO dependent UT-7/EPO cell line, derived from a patient with acute megakaryoblastic leukemia, was used (Komatsu et al., 1993, Blood, vol. 82 (2), 456-464). These cells undergo programmed cell death 48 to 72 hours after withdraw from media supplemented with rHuEPO. Cells that have been incubated in the absence of rHuEPO for 24 hours can be saved if treated with rHuEPO or an EPOR agonist. EMP-Hinge core mimetibody was added to cells starved without rHuEPO and cell viability was determined 48 hours after treatment using the tetrazolium compound MTS (CellTiter 96 Aqueous One Solution, Promega) that is metabolized by living cells to yield a product with an absorbance that can be measured. […] In addition, these same cells were stimulated with EMP-Hinge core mimetibody and tyrosine phosphorylation patterns visualized by running cell lysate through a polyacrylamide gel.

The conditions of data set [4]: 50% serum; cited from earlier work.
The target of the next data set is T1, EPO receptor (Homo sapiens, UniProt P19235).
T1 sequence (P19235 25-508): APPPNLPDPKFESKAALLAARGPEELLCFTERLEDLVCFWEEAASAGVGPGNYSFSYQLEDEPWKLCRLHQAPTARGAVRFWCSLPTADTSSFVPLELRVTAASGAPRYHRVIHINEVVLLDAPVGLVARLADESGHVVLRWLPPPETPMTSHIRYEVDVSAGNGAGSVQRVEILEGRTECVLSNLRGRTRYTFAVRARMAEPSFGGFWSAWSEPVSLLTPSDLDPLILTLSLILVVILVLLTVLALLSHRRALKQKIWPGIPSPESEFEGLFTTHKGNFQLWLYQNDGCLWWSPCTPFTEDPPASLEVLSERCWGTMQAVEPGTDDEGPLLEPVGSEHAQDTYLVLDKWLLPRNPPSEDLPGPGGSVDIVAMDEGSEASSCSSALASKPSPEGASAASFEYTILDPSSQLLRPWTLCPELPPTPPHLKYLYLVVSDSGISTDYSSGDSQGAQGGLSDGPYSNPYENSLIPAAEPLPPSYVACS
Briefly: competition with 125I-labeled EPO for binding to the EPO receptor.

The test system of data set [5] is DIO mice. The data set can be described thus: hematology (hemoglobin, reticulocytes) in DIO mice. The class given is in vivo. The settings on record: DIO mice, 0.03, 0.1, 0.3 mg/kg i.v., five days after dosing. As for the experimental part: (§2) The experiment described in Example 1 was repeated in DIO (diet induced obese) mice following dosing of CNTO 530 (0.3 mg/kg). This murine model is believed to be more representative of the human disease since the mice become diabetic after being fed a high fat diet (Purina TestDiet #58126 consisting of 60.9% kcal fat and 20.8% kcal carbohydrates). As described in Example 1, an IPGTT was done on the day of dosing and seven days after dosing. The time points during the IPGTT were 15, 30, 60, 90, 120, 150, and 180 minutes after glucose challenge. After the IPGTT was completed on day 7, the mice were sacrificed and whole blood (in EDTA) was collected via cardiac puncture for hematology studies.
(§3) Mice (DIO; n=7) were fasted overnight and fasting blood glucose (FBG) was measured. The animals were randomized based upon FBG. The mice were dosed intravenously with CNTO 530 (0.3 mg/kg) and given glucose intraperitonealy (0.5 mg/g) ten minutes later. Blood glucose was measured at various times (10, 20, 30, 60, 90, 120, 150, 180 minutes after glucose). The IPGTTs were repeated 7, 14, 21, 28, and 35 days after that initial single dose. […]
(§4) Mice (DIO; n=7) were fasted overnight and fasting blood glucose (FBG) was measured. […]
as §4

The subject of data set [6] is DIO mice. Briefly: IPGTT in DIO (diet induced obese) mice. The settings on record: 5 days after dosing. The class given is in vivo. The procedure:
as §2, §3, §4, §4

Data set [7] relates to patients with end-stage renal disease. The note with it: cited from earlier work.
Data set [8] deals with DIO mice. Briefly: fasting blood glucose in DIO mice. The class given is in vivo. The settings on record: DIO mice, 0.03, 0.1, 0.3 mg/kg i.v., 5 days after dosing. The procedure:
Mice (DIO; n=7) were fasted overnight and fasting blood glucose (FBG) was measured. The animals were randomized based upon FBG and dosed intravenously with EPO (0.03, 0.1, 0.3 mg/kg). An IPGTT (as described above) was done 5 days after dosing. The animals were sacrificed after the IPGTT and whole blood was collected for hematology measurements.
Mice (DIO; n=7) were fasted overnight and fasting blood glucose (FBG) was measured. The animals were randomized based upon FBG and dosed intravenously with darbepoetin (0.01, 0.03, 0.1 mg/kg). An IPGTT (as described above) was done 7 days after dosing. The animals were sacrificed after the IPGTT and whole blood was collected for hematology measurements.

For data set [9], the system named is patients with baseline HbA1C 6.0 or higher. The data set can be described thus: datamining of clinical data (GE Clinical Data Services EMR database), patients prescribed EPO. The class given is in vivo, human. The note with it: for magnitude of HbA1C decline: first 3 months after EPO; for fasting blood glucose after EPO: end of time course. From the text: GE Healthcare's Clinical Data Services database contains de-identified, normalized, longitudinal, patient-level Electronic Medical Record data from nearly to 4,000 US based physicians practicing in ambulatory setting who use GE Centricity EMR system. This database contains data on >4.7M patient lives. Average follow up time is approximately 3 years. The database contains information on Patient demographics, medical history, visit type, clinical observations (including Diagnosis codes), laboratory test results and medications prescribed. JNJ has purchased a license to this dataset and mined it to look for outcomes on diabetic parameters in patients who were prescribed EPO for anemia.
Population was further filtered to identify patients with Pre-EPO measurements followed by post-EPO measurements on the following variables of interest • Blood glucose, fasting • Hemoglobin A1c as % of total hemoglobin • Hemoglobin, blood • Hematocrit, blood
Patients with at least 1 pre- (up to 60 days prior) and 1 post- (up to 6 months after) EPO treatment measurements were considered for analysis. Number of patients meeting this criterion varied in numbers for different variables and time zones. Patients who were on EPO medication and also had mean HbA1c value of 6.0 or higher were considered as diabetic.

For data set [10] the following is noted: cited from earlier work.
For data set [11] the following is noted: in vivo; cited from earlier work.
Setting [12] is: listed as EMP-hinge core mimetibody.
[13] abbreviates: UT-7/EPO cells, viability 48 hours after treatment.
Setting [14] is: baseline HbA1C 7%-8% (7.38%), first month.
Where [15] appears, read: baseline HbA1C 8%-9% (8.35%), first month.
[16] abbreviates: baseline HbA1C >9% (10.18), first month.
Where [17] appears, read: longitudinal patients, baseline under 126 mg/dL (102 mg/dL).

In the case of “EMP-Hinge core mimetibody: V-EMP-1-linker-hinge core-CH2-CH3 construct of IgG1 or IgG4 subclass, SEQ ID NOS: 82-89 (QIQGGTYSCHFGPLTWVCKPQGG; cysteine pairing not given here; also: fused via linker to hinge core-CH2-CH3 of IgG1 or IgG4)”, the “duration of response compared to rHuEPO” value in the data set with normal mice is recorded as “prolonged”; in the data set with normal mice (setting [12]) it was “maintained for a longer period”. The “maximal response (hematocrit) compared to rHuEPO” value in the data set on normal mice is given as “higher maximal response”; with normal mice (setting [12]), “significantly higher maximal hematocrit”. Moreover, the “approximate half-life relative to rHuEPO” value in data set [1] is on record as “at least several times that of rHuEPO”. Besides, the complement lysis result in data set [2] was “does not mediate complement lysis”. Besides, the “potency on a molar basis, fold greater than the EMP-1 peptide” value is reported as 500 fold in data set [3] (setting [13]) and “more than 500 fold” in [3] (UT-7/EPO cells, viability 48 hours after treatment, listed as EMP-hinge core mimetibody). For the same substance, the “potency on a molar basis, fold less than rHuEPO” value in data set [3] (setting [13]) came out at 5 fold. Moreover, the “activity compared with rHuEPO” value in data set [3] is recorded as “in the range of rHuEPO”; in [3] (setting [12]), “substantially similar to recombinant HuEPO”.
On to “EMP-1: 20 amino acid peptide with no sequence homology to HuEPO that activates the EPO receptor as a dimer (GGTYSCHFGPLTWVCKPQGG)”, for which, in data set [4], the ex-vivo half-life is 8 h. In addition, in the data set with EPO receptor, the “competition with 125I-labeled EPO for binding to the EPO receptor” value is “competes”.
“EPO: glycoprotein hormone of 165 amino acids and four carbohydrate chains, primary regulator of erythropoiesis”: the hemoglobin result in the data set on DIO mice [5] is on record as “not significantly elevated”. Also, in the data set on DIO mice [5], the reticulocytes result is on record as “significantly increased in a dose dependent manner”. Besides, the “glucose tolerance (IPGTT)” value with DIO mice [6] (0.03 mg/kg i.v.) and in the data set with DIO mice [6] (0.3 mg/kg i.v.) was “modest improvement” throughout. Moreover, the “blood triglyceride, total cholesterol and LDL levels” value in [7] is on record as “concomitant improvement”. In addition, in data set [7], the insulin resistance result is recorded as “improve insulin resistance”. In addition, the fasting blood glucose entry in the data set on DIO mice [8] is on record as “no statistically significant reduction”. The “decline in HbA1C level” value is given as “no decline” in [9] (baseline HbA1C 6.0%-7.0%), 0.39% in [9] (setting [14]), 0.84% in data set [9] (setting [15]) and “approximately 1.69%” in data set [9] (setting [16]). The “HbA1C level after EPO” value in [9] (setting [14]) turned out to be 6.99%; in [9] (setting [15]), 7.51%; in data set [9] (setting [16]), 8.49%; in [9] (longitudinal dataset, baseline HbA1C 7-8% (7.47%), first 3 months), 7.01%; in data set [9] (longitudinal dataset, baseline HbA1C >8 (9.41%), first 3 months), 8.46%. Besides, the “magnitude of HbA1C decline” value in data set [9] (longitudinal dataset, baseline HbA1C 7-8% (7.47%)) was found to be 0.46%; in data set [9] (longitudinal dataset, baseline HbA1C >8 (9.41%)) it was 0.95%. Further, the “further HbA1C change” value in [9] (longitudinal dataset, baseline HbA1C 7-8%, next 3 months) is “no significant further change”; in data set [9] (longitudinal dataset, baseline HbA1C >8, next 3 month period) it was “no further decline”. In addition, the “fasting blood glucose after EPO” value is recorded as 145 mg/dL in data set [9] (longitudinal patients, baseline FBG>126 mg/dL (173 mg/dL)) and 107 mg/dL in [9] (setting [17]). Moreover, the “decline in fasting blood glucose, average” value in [9] (longitudinal patients, baseline FBG>126 mg/dL (173 mg/dL), entire time course) turned out to be 28 mg/dL. In addition, the “decline in FBG level” value in data set [9] (longitudinal patients, baseline under 126 mg/dL) is on record as “do not show any decline”. Besides, in data set [9] (setting [17]), the “increase in FBG at the end of the time course” value came to 5 mg/dL. Also, the “HbA1C level drop, average” value in data set [9] (patients with baseline HbA1C above 6.0, first month after EPO administration) is 0.5%. Also, in [9] (patients with baseline HbA1C above 6.0, maximum decline over a 4 month period), the “decrease in fasting blood glucose concentration” value is listed as “approximately 30 mg.dL”. Further, the improvement in hemoglobin in [9] (patients, clinical data) is less than 1%. Moreover, in [9] (patients, over a 3 month period after initial EPO administration, then plateau), the Hemoglobin level result is “increases steadily”. The “time to peak serum levels” value in data set [10] (subcutaneous administration) is 5 to 24 h. The “time detectable plasma levels are maintained” value in [10] (within the therapeutic dose range) is on record as “at least 24 hours”.
With CERA: Roche's pegylated epoetin, in data set [11], the “half-life compared with epoetin / EPO” value is reported as “longer half life”.
